biological target: Plk1 (Homo sapiens, UniProt P53350); assay: biochemical
Sequence (P53350 20-338): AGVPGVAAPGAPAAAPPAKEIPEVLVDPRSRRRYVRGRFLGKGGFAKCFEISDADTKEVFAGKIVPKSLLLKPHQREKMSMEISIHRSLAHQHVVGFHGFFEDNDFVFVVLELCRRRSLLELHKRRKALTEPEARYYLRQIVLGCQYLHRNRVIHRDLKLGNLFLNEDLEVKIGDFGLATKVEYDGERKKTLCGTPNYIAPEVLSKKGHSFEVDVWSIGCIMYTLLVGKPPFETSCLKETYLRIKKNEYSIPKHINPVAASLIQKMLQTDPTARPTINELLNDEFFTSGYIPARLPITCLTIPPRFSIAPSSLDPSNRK

`CN1C(=O)Cc2cc(Nc3ncc4c(n3)N(C3CCCC3)CC(C)(C)C(=O)N4C)ccc21` [Compound I-125, 2-(1-methyl-2-oxoindolin-5-ylamino)-9-cyclopentyl-8,9-dihydro-5,7,7-trimethyl-5H-pyrimido[4,5-b][1,4]diazepin-6(7H)-one] and `CN1C(=O)C(C)(C)CN(C2CCCC2)c2nc(Nc3ccc4c(c3)CC(=O)N4)ncc21` [Compound I-45, 2-(2-oxoindolin-5-ylamino)-9-cyclopentyl-8,9-dihydro-5,7,7-trimethyl-5H-pyrimido[4,5-b][1,4]diazepin-6(7H)-one] fall in the same range of Ki: 10 to 100 nM for the first, 10 to 100 nM for the second.

`COc1cc(C(=O)N[C@H]2CCOC2)ccc1Nc1ncc2c(n1)N(C1CCCC1)CC(C)(C)C(=O)N2C` [Compound I-172, 4-(9-cyclopentyl-6,7,8,9-tetrahydro-5,7,7-trimethyl-6-oxo-5H-pyrimido[4,5-b][1,4]diazepin-2-ylamino)-N—((S)-tetrahydrofuran-3-yl)-3-methoxybenzamide] and `COc1cc(C(=O)NC2CCCC2)ccc1Nc1ncc2c(n1)N(C1CCCC1)CC(C)(C)C(=O)N2C` [Compound I-129, 4-(9-cyclopentyl-6,7,8,9-tetrahydro-5,7,7-trimethyl-6-oxo-5H-pyrimido[4,5-b][1,4]diazepin-2-ylamino)-N-cyclopentyl-3-methoxybenzamide] cannot be ordered by Ki: less than 10 nM for the first, less than 10 nM for the second.

`COC[C@H](C)NC(=O)c1ccc(Nc2ncc3c(n2)N(C2CCCC2)CC(C)(C)C(=O)N3C)c(OC)c1` [Compound I-217, (S)-4-(9-cyclopentyl-5,7,7-trimethyl-6-oxo-6,7,8,9-tetrahydro-5H-pyrimido[4,5-b][1,4]diazepin-2-ylamino)-3-methoxy-N-(1-methoxypropan-2-yl)benzamide] and `COc1cc(C(=O)NC[C@H](C)O)ccc1Nc1ncc2c(n1)N(C1CCCC1)CC(C)(C)C(=O)N2C` [Compound I-270, (S)-4-(9-cyclopentyl-5,7,7-trimethyl-6-oxo-6,7,8,9-tetrahydro-5H-pyrimido[4,5-b][1,4]diazepin-2-ylamino)-N-(2-hydroxypropyl)-3-methoxybenzamide] cannot be ordered by Ki: less than 10 nM for the first, less than 10 nM for the second.

`COc1cc(C2=NCC(C)(C)N2)ccc1Nc1ncc2c(n1)N(C1CCCC1)CC(C)(C)C(=O)N2C` [Compound I-257, 9-cyclopentyl-2-(4-(5,5-dimethyl-4,5-dihydro-1H-imidazol-2-yl)-2-methoxyphenylamino)-5,7,7-trimethyl-8,9-dihydro-5H-pyrimido[4,5-b][1,4]diazepin-6(7H)-one] and `COc1cc(C(=O)NCCO)ccc1Nc1ncc2c(n1)N(C1CCCC1)CC(C)(C)C(=O)N2C` [Compound I-264, 4-(9-cyclopentyl-5,7,7-trimethyl-6-oxo-6,7,8,9-tetrahydro-5H-pyrimido[4,5-b][1,4]diazepin-2-ylamino)-N-(2-hydroxyethyl)-3-methoxybenzamide] cannot be ordered by Ki: less than 10 nM for the first, less than 10 nM for the second.

`COc1cc(C(=O)NCCN2CCC2)ccc1Nc1ncc2c(n1)N(C1CCCC1)CC(C)(C)C(=O)N2C` [Compound I-38] and `COc1cc(C(=O)N[C@@H]2CCC[C@H]2O)ccc1Nc1ncc2c(n1)N(C1CCCC1)CC(C)(C)C(=O)N2C` [Compound I-244, 4-(9-cyclopentyl-5,7,7-trimethyl-6-oxo-6,7,8,9-tetrahydro-5H-pyrimido[4,5-b][1,4]diazepin-2-ylamino)-N-((1R,2R)-2-hydroxycyclopentyl)-3-methoxybenzamide] cannot be ordered by Ki: less than 10 nM for the first, less than 10 nM for the second.

`CNC(=O)c1ccc(Nc2ncc3c(n2)N(C2CC2)CC(C)(C)C(=O)N3C)c(OC)c1` [Compound I-30, 4-(9-cyclopropyl-6,7,8,9-tetrahydro-5,7,7-trimethyl-6-oxo-5H-pyrimido[4,5-b][1,4]diazepin-2-ylamino)-3-methoxy-N-methylbenzamide] and `CNC(=O)c1ccc(Nc2ncc3c(n2)N(C2CCOCC2)CC(C)(C)C(=O)N3C)c(OC)c1` [Compound I-56, 4-(6,7,8,9-tetrahydro-9-(tetrahydro-2H-pyran-4-yl)-5,7,7-trimethyl-6-oxo-5H-pyrimido[4,5-b][1,4]diazepin-2-ylamino)-3-methoxy-N-methylbenzamide] fall in the same range of Ki: 10 to 100 nM for the first, 10 to 100 nM for the second.

`CNC(=O)c1ccc(Nc2ncc3c(n2)N(C2CCCC2)CC2(CCC2)C(=O)N3C)c(OC)c1` [Compound I-60, 4-(9′-cyclopentyl-5′-methyl-6′-oxo-5′,6′,8′,9′-tetrahydrospiro[cyclobutane-1,7′-pyrimido[4,5-b][1,4]diazepine]-2′-ylamino)-3-methoxy-N-methylbenzamide] and `COc1cc(C(=O)NC2CCOCC2)ccc1Nc1ncc2c(n1)N(C1CCCC1)CC1(CC1)C(=O)N2C` [Compound I-177, 4-(9′-cyclopentyl-5′-methyl-6′-oxo-5′,6′,8′,9′-tetrahydrospiro[cyclopropane-1,7′-pyrimido[4,5-b][1,4]diazepine]-2′-ylamino)-3-methoxy-N-(tetrahydro-2H-pyran-4-yl)benzamide] cannot be ordered by Ki: less than 10 nM for the first, less than 10 nM for the second.

`COc1cc(C(=O)NC2CC2)ccc1Nc1ncc2c(n1)N(C1CCCC1)C[C@H](C)C(=O)N2C` [Compound I-175, 4-((S)-9-cyclopentyl-6,7,8,9-tetrahydro-5,7-dimethyl-6-oxo-5H-pyrimido[4,5-b][1,4]diazepin-2-ylamino)-N-cyclopropyl-3-methoxybenzamide] and `COc1cc(C(=O)NC2CCOCC2)ccc1Nc1ncc2c(n1)N(C1CCCC1)C[C@@H](C)C(=O)N2C` [Compound I-182, (R)-4-(9-cyclopentyl-5,7-dimethyl-6-oxo-6,7,8,9-tetrahydro-5H-pyrimido[4,5-b][1,4]diazepin-2-ylamino)-3-methoxy-N-(tetrahydro-2H-pyran-4-yl)benzamide] cannot be ordered by Ki: less than 10 nM for the first, less than 10 nM for the second.

`COc1cc(C(=O)N[C@H]2CC[C@H](O)CC2)ccc1Nc1ncc2c(n1)N(C1CCCC1)CC(C)(C)C(=O)N2C` [Compound I-204, 4-(9-cyclopentyl-5,7,7-trimethyl-6-oxo-6,7,8,9-tetrahydro-5H-pyrimido[4,5-b][1,4]diazepin-2-ylamino)-N-((1R,4R)-4-hydroxycyclohexyl)-3-methoxybenzamide] and `COc1cc(C(=O)NC2CCN(C(=O)OC(C)(C)C)CC2)ccc1Nc1ncc2c(n1)N(C1CCCC1)CC(C)(C)C(=O)N2C` [Compound I-95] cannot be ordered by Ki: less than 10 nM for the first, less than 10 nM for the second.

`CN1C(=O)C(C)(C)CN(C2CCCC2)c2nc(Nc3cccc(NC(=O)CC(F)(F)F)c3)ncc21` [Compound I-145] and `CN1C(=O)C(C)(C)CN(C2CCCC2)c2nc(Nc3cccc(NS(C)(=O)=O)c3)ncc21` [Compound I-150, N-[3-(9-cyclopentyl-5,7,7-trimethyl-6-oxo-6,7,8,9-tetrahydro-5H-pyrimido[4,5-b][1,4]diazepin-2-ylamino)-phenyl]-methanesulfonamide] fall in the same range of Ki: 10 to 100 nM for the first, 10 to 100 nM for the second.

`COc1cc(C(=O)Nc2ccccn2)ccc1Nc1ncc2c(n1)N(C1CCCC1)CC(C)(C)C(=O)N2C` [Compound I-221, 4-(9-cyclopentyl-5,7,7-trimethyl-6-oxo-6,7,8,9-tetrahydro-5H-pyrimido[4,5-b][1,4]diazepin-2-ylamino)-3-methoxy-N-(pyridin-2-yl)benzamide] and `COc1cc(C(=O)Nc2ccccc2)ccc1Nc1ncc2c(n1)N(C1CCCC1)CC(C)(C)C(=O)N2C` [Compound I-200, 4-(9-cyclopentyl-5,7,7-trimethyl-6-oxo-6,7,8,9-tetrahydro-5H-pyrimido[4,5-b][1,4]diazepin-2-ylamino)-3-methoxy-N-phenylbenzamide] cannot be ordered by Ki: less than 10 nM for the first, less than 10 nM for the second.

First: CN1C(=O)C(C)(C)CN(C2CCCC2)c2nc(Nc3ccc4[nH]c(=O)[nH]c4c3)ncc21 [Compound I-108, 2-(2,3-dihydro-2-oxo-1H-benzo[d]imidazol-6-ylamino)-9-cyclopentyl-8,9-dihydro-5,7,7-trimethyl-5H-pyrimido[4,5-b][1,4]diazepin-6(7H)-one]
Second: CN1C(=O)C(C)(C)CN(C2CCCC2)c2nc(Nc3ccc(N)cc3)ncc21 [Compound I-117, 2-(4-aminophenylamino)-9-cyclopentyl-8,9-dihydro-5,7,7-trimethyl-5H-pyrimido[4,5-b][1,4]diazepin-6(7H)-one]
The Ki of the first is lower: less than 10 nM for the first, 10 to 100 nM for the second.

`COc1cc(C(=O)NCc2cc(C)on2)ccc1Nc1ncc2c(n1)N(C1CCCC1)CC(C)(C)C(=O)N2C` [Compound I-235, 4-(9-cyclopentyl-5,7,7-trimethyl-6-oxo-6,7,8,9-tetrahydro-5H-pyrimido[4,5-b][1,4]diazepin-2-ylamino)-3-methoxy-N-((5-methylisoxazol-3-yl)methyl)benzamide] and `COc1cc(C(=O)NC(C)(CO)CO)ccc1Nc1ncc2c(n1)N(C1CCCC1)CC(C)(C)C(=O)N2C` [Compound I-136, 4-(9-cyclopentyl-6,7,8,9-tetrahydro-5,7,7-trimethyl-6-oxo-5H-pyrimido[4,5-b][1,4]diazepin-2-ylamino)-N-(1,3-dihydroxy-2-methylpropan-2-yl)-3-methoxybenzamide] cannot be ordered by Ki: less than 10 nM for the first, less than 10 nM for the second.

`CN1C(=O)C(C)(C)CN(C2CCCC2)c2nc(Nc3ccc(-n4ccnc4)cc3)ncc21` [Compound I-48, 2-(4-(1H-imidazol-1-yl)phenylamino)-9-cyclopentyl-8,9-dihydro-5,7,7-trimethyl-5H-pyrimido[4,5-b][1,4]diazepin-6(7H)-one] and `CC(C)Oc1cc(C(=O)NC2CCN(C)CC2)ccc1Nc1ncc2c(n1)N(C1CCCC1)CC(C)(C)C(=O)N2C` [Compound I-51, 4-(9-cyclopentyl-6,7,8,9-tetrahydro-5,7,7-trimethyl-6-oxo-5H-pyrimido[4,5-b][1,4]diazepin-2-ylamino)-3-isopropoxy-N-(1-methylpiperidin-4-yl)benzamide] cannot be ordered by Ki: less than 10 nM for the first, less than 10 nM for the second.

`COc1cc(C(=O)NC2CCNCC2)ccc1Nc1ncc2c(n1)N(C1CCCC1)CCC(=O)N2C` [Compound I-6, 4-(9-cyclopentyl-6,7,8,9-tetrahydro-5-methyl-6-oxo-5H-pyrimido[4,5-b][1,4]diazepin-2-ylamino)-3-methoxy-N-(piperidin-4-yl)benzamide] and `COc1cc(C(=O)NC2CCN(C(=O)OC(C)(C)C)CC2)ccc1Nc1ncc2c(n1)N(C1CCCC1)CCC(=O)N2C` [Compound I-5, 4-(9-cyclopentyl-6,7,8,9-tetrahydro-5-methyl-6-oxo-5H-pyrimido[4,5-b][1,4]diazepin-2-ylamino)-3-methoxy-N-[1-(tert-butoxycarbonyl)piperidin-4-yl]benzamide] cannot be ordered by Ki: less than 10 nM for the first, less than 10 nM for the second.

— patent US8394952B2 (Vertex Pharmaceuticals Incorporated, priority 2006, dated 2013)
